Experimental data reported in ChEMBL document CHEMBL1152118, “Synthesis and pharmacological profile of two novel heterocyclic chromanols, CP-80,798 and CP-85,958, as potent LTD4 receptor antagonists” (Bioorg Med Chem Lett, 1995).
pIC50, pKi: −log10 of the molar value.

What was measured:
Cavia porcellus [1] = experiment: Inhibitory activity against LTD4 challenged pulmonary function test by oral administration (2 hr preantigen); assay type: functional
[2] = molecular target: T1, Cysteinyl leukotriene receptor 1 (Cavia porcellus, UniProt Q2NNR5); experiment: Inhibition of [3H]LTD4 binding to LTD4 receptor in guinea pig lung membranes; assay type: cell membranes, Membrane
T1 sequence (Q2NNR5 whole entry): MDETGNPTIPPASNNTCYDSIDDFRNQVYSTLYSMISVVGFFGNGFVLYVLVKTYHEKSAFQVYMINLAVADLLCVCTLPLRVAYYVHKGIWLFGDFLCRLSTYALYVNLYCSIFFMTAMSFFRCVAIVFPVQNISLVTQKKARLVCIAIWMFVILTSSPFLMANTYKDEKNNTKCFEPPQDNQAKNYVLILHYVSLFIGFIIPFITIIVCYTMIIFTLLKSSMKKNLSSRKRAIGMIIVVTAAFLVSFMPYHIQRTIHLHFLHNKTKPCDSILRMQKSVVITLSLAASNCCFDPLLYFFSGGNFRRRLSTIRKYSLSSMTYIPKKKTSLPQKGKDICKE

[3] = molecular target: T2, Polyunsaturated fatty acid 5-lipoxygenase (Rattus norvegicus, UniProt P12527); experiment: Inhibition of 5-Lipoxygenase (5-LO) in rat basophilic leukemia cells; assay type: cell-based, RBL-1
T2 sequence (P12527 whole entry): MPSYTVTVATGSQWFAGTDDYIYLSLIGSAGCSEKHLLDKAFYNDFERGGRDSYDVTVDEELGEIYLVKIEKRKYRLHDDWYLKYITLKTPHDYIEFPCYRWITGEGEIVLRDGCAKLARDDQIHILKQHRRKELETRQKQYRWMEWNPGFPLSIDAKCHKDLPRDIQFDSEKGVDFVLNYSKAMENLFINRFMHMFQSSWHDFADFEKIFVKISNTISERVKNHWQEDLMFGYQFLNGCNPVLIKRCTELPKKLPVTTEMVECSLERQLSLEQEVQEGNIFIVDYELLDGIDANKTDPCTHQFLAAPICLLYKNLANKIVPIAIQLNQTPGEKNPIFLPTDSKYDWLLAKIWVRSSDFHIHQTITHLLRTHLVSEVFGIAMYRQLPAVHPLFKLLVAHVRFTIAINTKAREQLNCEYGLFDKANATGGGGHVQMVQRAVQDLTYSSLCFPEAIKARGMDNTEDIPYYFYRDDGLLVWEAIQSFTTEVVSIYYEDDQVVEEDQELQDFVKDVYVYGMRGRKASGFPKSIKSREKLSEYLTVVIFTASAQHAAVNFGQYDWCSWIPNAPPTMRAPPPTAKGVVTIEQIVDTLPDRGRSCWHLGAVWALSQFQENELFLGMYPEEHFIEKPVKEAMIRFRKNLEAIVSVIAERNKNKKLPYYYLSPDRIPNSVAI

Cavia porcellus [4] = experiment: Dose required to block the airway obstruction induced by aerosolized antigen by oral administration; assay type: functional
Cavia porcellus [5] = experiment: Inhibitory activity against LTD4 challenged pulmonary function test by oral administration; assay type: functional

Compound | pKi [2] | pIC50 [3] | ED50 (Cavia porcellus [1]) [mg/kg] | ED50 (Cavia porcellus [4]) [mg/kg] | ED50 (Cavia porcellus [5]) [mg/kg]
CCCCC1CCc2ccc(OCc3ccc4ccccc4n3)cc2C1O (stereo not drawn) | 5.17 |  |  |  | 
O=C(O)c1cccc(C[C@@H]2COc3ccc(OCc4nc5cc(F)ccc5s4)cc3[C@@H]2O)c1 | 4.62 | 5.09 | 0.43 | 10.8 | 0.49
CCCCCC(O)c1cccc(OCc2ccc3ccccc3n2)c1 (stereo not drawn) [REV-5901] | 5.10 |  |  |  | 

Now those with a higher pKi [2], led by results:

pKi [2] | pIC50 [3] | Compound | ED50 (Cavia porcellus [1]) [mg/kg] | ED50 (Cavia porcellus [4]) [mg/kg] | ED50 (Cavia porcellus [5]) [mg/kg]
5.82 |  | O[C@@H]1c2cc(OCc3ccc4ccccc4n3)ccc2CC[C@H]1Cc1ccccc1 |  |  | 
6.19 | 5.72 | O[C@@H]1c2cc(OCc3ccc4ccccc4n3)ccc2OC[C@@H]1Cc1cccnc1 | 20 | 16 | 3
